From patent US20240376151A1, “STAPLED PEPTIDES AND METHODS THEREOF” (FOG PHARMACEUTICALS, INC., priority 2022, published 2024)
Where two headings read alike, the source gives them in different places.

Columns and labels:
[1] = molecular target: T1, beta-catenin (Homo sapiens, UniProt P35222); assay: Competition FP, beta-catenin vs Axin-derived Helicon probe; type: binding
T1 construct: 10 nM full-length β-catenin (Uniprot ID P35222); 6×His-thrombin-T7-TEV (N); made in house; host or cells: E. coli BL21 (DE3) pLysS

[2] = molecular target: T2, beta-catenin (Homo sapiens, UniProt P35222); assay: SPR binding of Helicons to immobilized beta-catenin
T2 construct: made in house; host or cells: E. coli BL21 (DE3) pLysS
T2 sequence (P35222 134-665): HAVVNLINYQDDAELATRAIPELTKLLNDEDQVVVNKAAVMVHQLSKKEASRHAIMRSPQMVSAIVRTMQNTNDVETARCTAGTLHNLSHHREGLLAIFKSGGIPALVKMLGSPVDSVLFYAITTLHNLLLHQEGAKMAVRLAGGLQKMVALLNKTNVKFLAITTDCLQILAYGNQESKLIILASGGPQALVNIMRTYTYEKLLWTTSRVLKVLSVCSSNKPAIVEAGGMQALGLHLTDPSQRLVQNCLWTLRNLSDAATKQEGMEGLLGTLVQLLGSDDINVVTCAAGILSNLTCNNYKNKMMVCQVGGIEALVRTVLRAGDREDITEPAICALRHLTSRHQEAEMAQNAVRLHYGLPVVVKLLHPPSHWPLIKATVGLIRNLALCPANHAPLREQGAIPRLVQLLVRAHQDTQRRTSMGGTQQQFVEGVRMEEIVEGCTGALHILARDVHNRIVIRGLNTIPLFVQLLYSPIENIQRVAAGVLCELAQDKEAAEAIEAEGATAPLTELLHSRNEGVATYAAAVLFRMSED

[3] = molecular target: T3, VHL-ELOBC (Homo sapiens, UniProt P40337); assay: Naive Library Presenter Screening (phage, NGS), VHL-ELOBC; type: binding; conditions: VHL target concentration 1000 nM
T3 construct: VHL (Uniprot ID: P40337, residues 54-213) with an N-terminal 6×His-TEV tag; 6×His-TEV (N); made in house; host or cells: E. coli BL21 (DE3)

[4] = molecular target: T4, PD-L1 (Homo sapiens, UniProt Q9NZQ7); conditions: analytical SEC and TR-FRET experiments
[5] = molecular target: T4, PD-L1; conditions: TR-FRET
[6] = molecular target: PD-L1:PD-1 binding (Homo sapiens, UniProt Q9NZQ7); conditions: competition ELISA, n=2
[7] = molecular target: T4, PD-L1; conditions: SPR
[8] = molecular target: T3, VHL-ELOBC; assay: Competition FP with VHL-binding fluorescent probe HXC78; conditions: n=3
[9] = molecular target: T1, beta-catenin; assay: Competition FP, beta-catenin vs beta-catenin-binding domain of TCF4; conditions: read-out: IC50 (μM, TCF)
[10] = molecular target: CDK2 (Homo sapiens, UniProt P24941); assay: CDK2 kinase activity, luminescence-based assay that detects ADP production; type: biochemical
From the text: Among other things, two distinct clusters of Helicons that bound both CDK2 and CDK2 in complex with its partner CyclinE1, but not to CDK1 or CDK1 in complex with its partner CyclinA2 (C51 and C52). […] In some embodiments, one or more (e.g., 1, 2 or 3) or all residues to the N-terminus side of X^4 are absent. In some embodiments, one or more (e.g., 1, 2 or 3) or all residues to the C-terminus side of X^11 are absent.

Molecule: CC[C@H](C)[C@@H]1NC(=O)[C@H](C)NC(=O)[C@H](C)NC(=O)[C@H](Cc2c[nH]c3ccccc23)NC(=O)[C@H](CCC(=O)O)NC(=O)[C@@H](NC(=O)[C@H](CC(C)C)NC(=O)[C@H](CCC(=O)O)NC(=O)[C@H](CO)NC(=O)[C@H](C)NC(=O)[C@@H]2CCCN2C(=O)[C@H](CC(=O)O)NC(C)=O)CSCC(=O)Nc2ccc(cc2)NC(=O)CSC[C@@H](C(=O)N[C@@H](CC(=O)O)C(=O)N[C@@H](CC(C)C)C(=O)N[C@H](C(N)=O)C(C)C)NC(=O)[C@H](Cc2c[nH]cn2)NC1=O [FP01822]
- IC50 [1]: 3.7 µM
- Kd [2]: 3 µM

Molecule: DPAWWYCLDAAYDCDHT
- interaction data at Target Concentration 1000 [3]: 0

Molecule: Cc1cc(CN[C@H](CO)C(=O)O)c(OCc2cccc(C#N)c2)cc1OCc1cccc(-c2ccc3c(c2)OCCO3)c1C [BMS-1001]
- PD-L1 dimerization [4]: Evidence of PD-L1 dimerization
- induction of PD-L1 dimerization in solution [5]: induce PD-L1 dimerization
- inhibition of PD-L1:PD-1 binding [6]: inhibits PD-L1:PD-1 binding
- competition with PD-1 for binding to PD-L1 [7]: compete more potently

Molecule: Cc1ncsc1-c1ccc(CNC(=O)[C@@H]2C[C@@H](O)CN2C(=O)[C@@H](NC(=O)C2(C#N)CC2)C(C)(C)C)cc1 [VH298, (2S,4R)-1-((S)-2-(1-Cyanocyclopropanecarboxamido)-3,3-dimethylbutanoyl)-4-hydroxy-N-(4-(4-methylthiazol-5-yl)benzyl)pyrrolidine-2-carboxamide]
- competition with HXC78 for binding VHL-ELOBC [8]: potently competes

Molecule: CC[C@H](C)[C@H](NC(=O)[C@H](CS)NC(=O)[C@H](CC(=O)O)NC(=O)[C@H](CC(=O)O)NC(=O)[C@H](CCC(N)=O)NC(=O)[C@H](C)NC(=O)[C@@H]1CCCN1C(=O)[C@H](CC(=O)O)NC(C)=O)C(=O)N[C@@H](CC(C)C)C(=O)N[C@@H](C)C(=O)N[C@@H](C)C(=O)N[C@@H](Cc1c[nH]cn1)C(=O)N[C@H](C(=O)N[C@@H](CS)C(=O)N[C@@H](C)C(=O)N[C@@H](CC(C)C)C(=O)N[C@@H](Cc1c[nH]c2ccccc12)C(N)=O)C(C)C [FP49433]
- IC50 [9]: > 10 µM
- Kd ([2]; SPR, beta-catenin, read-out: KD (μM, SPR)): > 10 µM

Molecule: DPAWYACMDAARVCDRT
- interaction data at Target Concentration 1000 [3]: 0

Molecule: Ac-WWVCAIAAIECSD-NH2 [FP33215]
- inhibition of the kinase activity of CDK2 [10]: neither FP19711 nor FP33215 appeared to inhibit
